The structures appear in SMILES notation.

This data set is described as follows: gradient 5% acetonitrile 3 min, to 50% in 2 min, to 85% in 15 min, held 3 min, 100 µL/min. Particulars: column: Zorbax Extend-C18 2.1 x 50 mm; eluents: water / acetonitrile, 0.1% formic acid. The method, boiled down:
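Mixtures of ~100 pure standards were chromatographed on a Zorbax Extend-C18 column (2.1 × 50 mm, 1.8 μm) at 100 μL/min using water and acetonitrile, each with 0.1% formic acid. Detection used a quadrupole time-of-flight mass spectrometer in positive and negative ionization mode, and data collection spanned 3 months. Retention time was obtained from adduct peaks picked computationally and each checked manually.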
Compound `CC1CCN(c2ncc3c(n2)CCC(C(=O)NCc2ccc(N4CCOCC4)cc2)C3)CC1` (stereo not given) returned an RP-LC retention time of 715 s.
The result for `Cc1csc(-c2cc(S(=O)(=O)Nc3ccc(F)cc3Cl)cn2CC(=O)N2CCCC2)n1` reads 944 s; that for `CC(C)CCN1CCC(N(Cc2cccnc2)C2CCOCC2)CC1`, 551 s; that for `CCc1cc(=O)n(CC(=O)Nc2ccc(Cl)c(Cl)c2)c(-n2nc(C)cc2C)n1`, 1060 s.
As for `O=C(c1ccc2ncnc(N3CCCC3)c2c1)N1CCN(c2ccccc2F)CC1`, the figure is 659 s.
The result for `O=C(CCc1c[nH]c2ccccc12)NCCc1c[nH]c2ccc(Cl)cc12` reads 861 s; that for `Cc1cc(NC(=O)C2CCN(C(=O)c3cnn(-c4ccccc4)c3C)CC2)no1`, 657 s; that for `Cc1ccc(CNC(=O)Nc2cc3c(cc2N2CCCCC2)n(C)c(=O)n3C)cc1`, 610 s.
`Cc1ccc(=O)n(CC(=O)N2CCOCC2)n1`: the RP-LC retention time stood at 514 s.
As for `O=C(Nc1ccccc1)C1(CCO)CCN(Cc2ccccc2)C1` (stereo not given), the figure is 624 s; as for `Cc1sc(NC(=O)C2CCN(S(=O)(=O)c3cccs3)CC2)c(C(N)=O)c1C`, 769 s; as for `COc1ccc(C)cc1NC(=O)N1C[C@@H]2C[C@H](NS(C)(=O)=O)[C@H]1C2`, 717 s.
In turn, `CN1C(=O)CCc2cc(C(=O)NC3CC3)ccc21` registered an RP-LC retention time of 626 s.
As for `Cc1ccc(N2CCN(Cc3nc(-c4ccc(N5CCOCC5)nc4)no3)CC2)cc1`, the figure is 791 s.
As for `CC(c1ccccc1)c1nc(-c2ccc3c(c2)nnn3CCN2CCOCC2)no1` (stereo not given), the figure is 714 s; as for `CCC(CC)c1nnc(NC(=O)C2CC(=O)N(CCc3c[nH]c4ccc(C)cc34)C2)s1` (stereo not given), 856 s; as for `CCN1CCCn2cc(S(=O)(=O)N3CCN(c4ccccn4)CC3)cc2C1=O`, 577 s.
As for `Cc1ccc(N2C(=O)CN(S(=O)(=O)c3ccccc3)CC2(C)C(=O)NC2CCCCC2)cc1` (stereo not given), the figure is 1000 s; as for `Cc1ccccc1Nc1c(-c2ccccn2)nc2cnccn12`, 941 s; as for `Cc1ccc(N2CCN(C(=O)c3ccc(CN4CCN(C(C)C)C(=O)C4=O)cc3)CC2)cc1`, 728 s.
Turning to `CSCc1csc(NC(=O)NCc2ccc(F)cc2)n1`, the RP-LC retention time was determined as 754 s.
With `CN1C(=O)Cc2cc(NC(=O)c3ccno3)ccc21`, the RP-LC retention time turned out to be 586 s.
Turning to `Cc1ccc(S(=O)(=O)Nc2ccc(-c3cn4ccccc4n3)cc2)cc1[N+](=O)[O-]`, the RP-LC retention time is 662 s.
Take `Cn1c(=O)n([C@@H]2CCN(C(=O)c3ccc4c(c3)OCO4)C2)c2ncccc21`: the RP-LC retention time was determined as 688 s.
The compound `CN1CCC(N2CCN(S(=O)(=O)c3cc(-c4nc(C(C)(C)C)cs4)cs3)CC2)CC1` displayed an RP-LC retention time of 660 s.
With `CC1CCN(c2nc3c(c(=O)n(Cc4ccccc4F)c(=O)n3C)n2C)CC1`, the RP-LC retention time came out at 1130 s.
As for `Cc1ccc(S(=O)(=O)N2CC3CN(C(=O)c4ccc5c(c4)OCO5)CC(C2)O3)cc1`, the figure is 804 s; as for `Cc1ccc(C(C)NC(=O)C2CCN(c3nccnc3Oc3cccc(C)c3)CC2)cc1` (stereo not given), 1070 s; as for `CC(C)Cn1cc(CCNC(=O)Nc2ccc(Br)cc2)c2cccnc21`, 932 s.
The result for `CSc1ccc(-c2nc3ccc(Cl)cn3c2Nc2ccccc2C)cc1` reads 954 s.
The result for `CCc1nc(OCC(=O)Nc2ccccc2C(F)(F)F)c2ccccc2n1` reads 846 s.
Turning to `Cc1ccc(CNC(=O)C2(C)CCCN(C(=O)Nc3cccc(C)c3)C2)cc1` (stereo not given), the RP-LC retention time came out at 967 s.
As to `CCOC(=O)C1=C(CN2CCN(Cc3ccccc3)CC2)NC(=O)NC1c1ccc(OC(C)C)cc1` (stereo not given), the RP-LC retention time is 713 s.
As for `COc1ccc(-c2cc(C(=O)N3CCCC3c3c(C)noc3C)on2)cc1` (stereo not given), the figure is 856 s; as for `Cc1cc(Br)ccc1NC(=O)C1CCCN(c2nccnc2Oc2ccccc2)C1` (stereo not given), 1120 s.
The result for `O=C(O)c1cccn2c(=O)c3cc(Cl)ccc3nc12` reads 782 s.
As for `COc1cccc(CNC(=O)CN2CCN(Cc3ccc(F)cc3)C2=O)c1`, the figure is 769 s; as for `COc1ccc2[nH]cc(CCNC(=O)c3ccc(SC)cc3OC)c2c1`, 865 s; as for `COc1ccc(C2CC(=O)N(c3ccc(C)cc3C)C(=O)C2)cc1`, 941 s.
Consider `COc1ccc(CC(=O)N2C[C@@H]3C[C@H]2C[C@@H]3NS(C)(=O)=O)cc1`, for which the RP-LC retention time is 647 s.
Regarding `CCc1ccc(S(=O)(=O)N2CC(c3nc(-c4ccccc4)nn3C)C2)cc1`, the RP-LC retention time was found to be 1030 s.
The result for `Cc1ccc2c(c1)N(S(C)(=O)=O)CCC(C(=O)NCc1ccccc1Cl)O2` (stereo not given) reads 945 s; that for `Cn1c(=O)c2ccn(CC(=O)NCCCc3ccccc3)c2n(C)c1=O`, 699 s.
For the compound `CCSc1nnc(-c2nn(C)c3c2CN(S(=O)(=O)c2ccc(OC)cc2)CC3)n1CC`, the RP-LC retention time stood at 905 s.
As for `CC(C)c1ccc(S(=O)(=O)N(CC(=O)N2CCNCC2)CC(C)c2ccccc2)cc1` (stereo not given), the figure is 772 s.
As for `COc1ccc(NC2=NS(=O)(=O)C(c3ccccc3)=C2C)cc1OC`, the figure is 802 s; as for `Cc1ccc(C(=O)N2CCC(n3c(-c4ccco4)nc4cccnc43)C2)cc1C` (stereo not given), 806 s.
Compound `c1cc(-c2noc(C3CCCCC3)n2)cc(N2CCOCC2)n1` gave an RP-LC retention time of 1010 s.
The result for `Cc1ccc(S(=O)(=O)N2CCC(CN3CCCCCC3)CC2)cc1F` reads 686 s.
As for `Cc1nnc2c(=O)n(CC(=O)NCc3ccc(N(C)C)cc3)c3cccnc3n12`, the figure is 570 s; as for `Cc1ccc2nc(-c3ccccc3F)cc(C(N)=O)c2c1`, 778 s; as for `Cc1ccc(NC(=O)COc2cc(C(F)(F)F)c3c(C)nn(C)c3n2)c(C)c1`, 1060 s.
`O=C(Nc1nc(-c2ccc3ccccc3c2)cs1)c1ccc(Cl)cc1Cl` had an RP-LC retention time of 1220 s.
The result for `CCCN(C)C(=O)C1CCCCc2nnc(C(C)C)n21` (stereo not given) reads 622 s; that for `CCNC(=O)Nc1ccc2c(c1)CN(S(=O)(=O)Cc1ccccc1)CCO2`, 754 s; that for `CN1C(=C=Cc2cc(I)c(O)c(I)c2)C(C)(C)c2ccccc21`, 890 s.
Take `Cc1c(C(=O)O)nnn1Cc1cccc(C(F)(F)F)c1`: the RP-LC retention time worked out at 744 s.
`CCN(CC)c1ncc2c(n1)CCC(C(=O)Nc1ccc(C(=O)OC)cc1)C2` (stereo not given) yielded an RP-LC retention time of 736 s.
As for `O=C(Nc1ccc(F)cc1)Nc1cccn2ncnc12`, the figure is 763 s; as for `O=C(Nc1cccc(-c2nnc3n2CCCC3)c1)c1nccc2ccccc12`, 769 s.
As for `CCCNC(=O)C1CCCN(c2nc(C)nc3onc(CC)c23)C1` (stereo not given), the figure is 743 s; as for `O=C(Cn1ccn2nc(-c3ccccc3)c(CO)c2c1=O)Nc1ccc2c(c1)CCC2`, 906 s.
As for `CC(C)Oc1ccc(CNC(=O)c2nnc(-c3ccc(S(=O)(=O)N(C)C)cc3)o2)cc1`, the figure is 943 s.
`COc1ccc(-c2nc3ccc(C)cn3c2Nc2ccc(C)cc2)cc1` came in with an RP-LC retention time of 778 s.
As for `Cc1nc(-c2csc(S(=O)(=O)N3CCC(C(=O)Nc4ccc(F)cc4)CC3)c2)no1`, the figure is 916 s; as for `CC(C)NCCCn1c(Sc2cc3c(cc2I)OCO3)nc2c(N)ncnc21`, 592 s.
`COc1ccc(Nc2n[nH]nc2C(=O)Nc2ccccc2Br)cc1` showed an RP-LC retention time of 1050 s.
As to `COc1ccc(NC(=O)CSc2cc(NCc3ccccc3Cl)ncn2)c(OC)c1`, the RP-LC retention time came to 933 s.
The result for `COc1ccc(C)cc1NS(=O)(=O)c1cc(-c2cc(C(F)(F)F)on2)sc1C` reads 1210 s; that for `CC(C)CN(Cc1cccnc1)C1CN(S(=O)(=O)Cc2ccccc2)C1`, 719 s.
As for `CCN1c2ccc(C)cc2C(=O)NC12CCN(C(=O)c1ccc(F)c(Cl)c1)CC2`, the figure is 888 s.
As for `CCCNC(=O)c1ncn2c1C(=O)N(C1CC1)C(C)(C(=O)NCc1ccccc1Cl)C2` (stereo not given), the figure is 722 s; as for `COc1ccc(C2CCCN2C(=O)c2c(Br)cnn2C)cc1` (stereo not given), 841 s; as for `COc1ccc(-c2noc(C3CC(=O)N(c4cccc(Cl)c4)C3)n2)cc1` (stereo not given), 998 s.
In turn, `CCOc1ccc(NC(=O)c2cc3oc(C)cc3n2Cc2ccc(C)cc2)cc1` gave an RP-LC retention time of 1210 s.
The result for `CN1CCN(C2=Cc3ccccc3Oc3ccc(Cl)cc32)CC1` reads 818 s; that for `CCCC(=O)N1CCN(c2nc3ccccc3n(CC(C)C)c2=O)CC1`, 1000 s.
For `Cc1ccc(CNC(=O)C2(C)CN(S(C)(=O)=O)CC(=O)N2CCc2ccccc2)cc1` (stereo not given), the RP-LC retention time stood at 856 s.
`O=C(Nc1cnc(N2CCCC2)nc1)c1ccccc1Br` displayed an RP-LC retention time of 717 s.
The result for `COCCNC(=O)C1CCN(C2=NS(=O)(=O)C(c3ccc(Cl)cc3)=C2C)CC1` reads 725 s.
